Test results as given in the supplement of paper PMC4862054.

Columns and labels:
Experiment in all cases: normalised viability (% of control), CellTiter-Blue; higher = more viable cells (about 100 = DMSO control)
Settings in all cases: incubation time: 72 h
MFM-223 = test system: MFM-223
Summary of the method: (§1)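 The reported figure is normalised viability at a single listed concentration of the series. Breast cancer cell lines (20 µl suspension) went onto 384-well plates holding compound in 5 µl medium for 72 h. CellTiter-Blue (2.5 µl, 2 h, 37 °C) was read by fluorescence at 560/590 nm, and each plate was scaled to vehicle at 100 and a positive kill control at 0.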

MDA-MB-453 = test system: MDA-MB-453
Summary of the method: as §1

CAL-120 = test system: CAL-120
Summary of the method: as §1

HCC1599 = test system: HCC1599
Summary of the method: as §1

HDQ-P1 = test system: HDQ-P1
Summary of the method: as §1

SK-BR-3 = test system: SK-BR-3
Summary of the method: as §1

CAL-85-1 = test system: CAL-85-1
Summary of the method: as §1

HCC1143 = test system: HCC1143
Summary of the method: as §1

BT-549 = test system: BT-549
Summary of the method: as §1

CAL-148 = test system: CAL-148
Summary of the method: as §1

MDA-MB-436 = test system: MDA-MB-436
Summary of the method: as §1

BT-474 = test system: BT-474
Summary of the method: as §1

DU-4475 = test system: DU-4475
Summary of the method: as §1

MDA-MB-231 = test system: MDA-MB-231
Summary of the method: as §1

Hs578T = test system: Hs578T
Summary of the method: as §1

CAL-51 = test system: CAL-51
Summary of the method: as §1

HCC1937 = test system: HCC1937
Summary of the method: as §1

Compound | normalised viability (MFM-223; 100 nM) | normalised viability (MDA-MB-453; 10 nM) | normalised viability (CAL-120; 100 nM) | normalised viability (HCC1599; 100 nM) | normalised viability (HDQ-P1; 10 nM) | normalised viability (SK-BR-3; 100 nM) | normalised viability (CAL-85-1; 10 nM) | normalised viability (HCC1143; 100 nM) | normalised viability (BT-549; 100 nM) | normalised viability (CAL-148; 10 nM) | normalised viability (MDA-MB-436; 100 nM) | normalised viability (BT-474; 100 nM) | normalised viability (DU-4475; 10 nM) | normalised viability (MDA-MB-231; 100 nM) | normalised viability (Hs578T; 100 nM) | normalised viability (CAL-51; 10 nM) | normalised viability (HCC1937; 100 nM) | normalised viability (MFM-223; 10 nM) | normalised viability (MDA-MB-453; 1 nM) | normalised viability (CAL-120; 10 nM) | normalised viability (HCC1599; 10 nM) | normalised viability (HDQ-P1; 1 nM) | normalised viability (SK-BR-3; 10 nM) | normalised viability (CAL-85-1; 1 nM) | normalised viability (HCC1143; 10 nM) | normalised viability (BT-549; 10 nM) | normalised viability (CAL-148; 1 nM) | normalised viability (MDA-MB-436; 10 nM) | normalised viability (BT-474; 10 nM) | normalised viability (DU-4475; 1 nM) | normalised viability (MDA-MB-231; 10 nM) | normalised viability (Hs578T; 10 nM) | normalised viability (CAL-51; 1 nM) | normalised viability (HCC1937; 10 nM)
N#CC[C@H](C1CCCC1)n1cc(-c2ncnc3[nH]ccc23)cn1 [Ruxolitinib] | 93.2% | 93% | 97.5% | 99.3% | 74.4% | 85.1% | 96.4% | 107% | 74.5% | 102% | 94.5% | 107% | 101% | 90.8% | 79.2% | 84.9% | 81.1% |  |  |  |  |  |  |  |  |  |  |  |  |  |  |  |  | 
S=c1[nH]cnc2nc[nH]c12 [Mercaptopurine] | 93.6% | 113% | 90.2% | 93.5% | 106% | 94% | 93.9% | 92% | 106% | 94.1% | 121% | 111% | 130% | 99.8% | 113% | 108% | 104% |  |  |  |  |  |  |  |  |  |  |  |  |  |  |  |  | 
Nc1nc(Cl)nc2c1ncn2[C@H]1C[C@H](O)[C@@H](CO)O1 [Cladribine] |  |  |  |  |  |  |  |  |  |  |  |  |  |  |  |  |  | 85% | 112% | 97.4% | 105% | 120% | 95% | 107% | 85.5% | 92% | 97.4% | 96.9% | 118% | 108% | 83% | 98.4% | 114% | 84.8%
C[C@]1(c2nc3c(C(N)=O)cccc3[nH]2)CCCN1 [Veliparib] | 89.9% | 99.4% | 74.8% | 116% | 103% | 72.5% | 90.8% | 75.6% | 104% | 89.1% | 84.1% | 101% | 98.2% | 92.3% | 76.7% | 113% | 85.4% |  |  |  |  |  |  |  |  |  |  |  |  |  |  |  |  | 
C=CC[C@@H]1/C=C(\C)C[C@H](C)C[C@H](OC)[C@H]2O[C@@](O)(C(=O)C(=O)N3CCCC[C@H]3C(=O)O[C@H](/C(C)=C/[C@@H]3CC[C@@H](O)[C@H](OC)C3)[C@H](C)[C@@H](O)CC1=O)[C@H](C)C[C@@H]2OC [Tacrolimus] | 99.2% | 112% | 110% | 123% | 119% | 91.8% | 101% | 110% | 102% | 102% | 108% | 113% | 112% | 112% | 109% | 101% | 93.7% |  |  |  |  |  |  |  |  |  |  |  |  |  |  |  |  | 
OC[C@H]1O[C@@H](n2cnc3c2N=CNC[C@H]3O)C[C@@H]1O [Pentostatin] | 95.8% | 104% | 103% | 97.6% | 106% | 97.6% | 103% | 112% | 80.9% | 111% | 99.1% | 109% | 109% | 94.9% | 91.5% | 88.4% | 106% |  |  |  |  |  |  |  |  |  |  |  |  |  |  |  |  | 
CC[C@]1(O)C[C@@H]2CN(CCc3c([nH]c4ccccc34)[C@@](C(=O)OC)(c3cc4c(cc3OC)N(C)[C@H]3[C@@](O)(C(=O)OC)[C@H](OC(C)=O)[C@]5(CC)C=CCN6CC[C@]43[C@@H]65)C2)C1 [Vinblastine] |  |  |  |  |  |  |  |  |  |  |  |  |  |  |  |  |  | 76.7% | 98.4% | 19.1% | 107% | 106% | 13% | 101% | 40.6% | 26.3% | 107% | 51.5% | 49.7% | 102% | 20.1% | 14.7% | 114% | 20.6%
Cc1ccc(F)c(NC(=O)Nc2ccc(-c3cccc4[nH]nc(N)c34)cc2)c1 [Linifanib] |  |  |  |  |  |  |  |  |  |  |  |  |  |  |  |  |  | 102% | 106% | 95.2% | 108% | 108% | 119% | 99% | 89.4% | 94.8% | 104% | 124% | 111% | 96.5% | 103% | 82.9% | 102% | 109%
